Results taken from patent US20250186439A1, “PYK2 INHIBITION MODULATES IMMUNE CELL FUNCTION” (The Children's Medical Center Corporation, priority 2022, published 2025).
“Also recorded” adds a separate entry of the source.

Legend:
Assay type in all cases: cell-based, mouse
MG6 cells = assay: Phagocytosis of Hilite-555 labelled Aβ42 by MG6 cells; details: 24 h inhibitor, Hilite-555 labelled Aβ42 500 ng/mL; listed as Pyk2 inhibitor
Description: FIGS. 5A-5D. Characteristics of Pyk2 inhibition on phagocytotic activity in microglia. FIG. 5A: Immunofluorescent imaging depicting phagocytosis of pHrodo Red E. coli BioParticles by MG6 cells after exposure to Pyk2 inhibitors. MG6 cells were either untreated (left) or treated with 1000 nM Pyk2 inhibitor treatment for 24 hours (right). Immunofluorescent images were obtained via confocal microscopy (×600). MG6 cells were fixed and stained with phalloidin-AlexaFluor488 to visualize actin, and with DAPI to visualize nuclei (encircled). Scale bar is 20 μm. […] FIG. 5B: Immunofluorescent imaging depicting phagocytosis of pHrodo Red E. coli BioParticles by mononucleated and multinucleated MG6 cells after exposure to Pyk2 inhibitors. MG6 cells were treated and imaged as in FIG. 5A. After obtaining three-dimensional images, BioParticles are quantified by a spot analysis using IMARIS software (bottom figures). FIG. 5C: Quantification of spot analysis in FIG. 5B. The output of IMARIS spot analysis was analyzed using one-way ANOVA. […] FIG. 5D: Phagocytotic activity for Aβ in MG6 cells. Immunostaining for Iba1 and Aβ in control and Pyk2 inhibitor treated group. MG6 cells were treated with Pyk2 inhibitor or vehicle for 24 hours and then Hilite-555 labelled Aβ42 was added for 24 hours. Data are representative images of four wells from three independent experiments. […]

[1] = test system: IL-6, IL-1β, IL-10, and TGF-β mRNA; assay: Cytokine/chemokine mRNA levels (qPCR) in sorted MG6 cells; details: qPCR after inhibitor treatment
Description: FIGS. 7A-7D. Pyk2 inhibition promotes the phagocytotic activity and inflammatory responses in microglia. FIG. 7A: Quantification of the effect of Pyk2 inhibitor treatment on proliferation of mononucleated and multinucleated MG6 cells. MG6 cells were pretreated with 1000 nM Pyk2 inhibitor for 24 hours and mono-/multi-nuclear cells were isolated and collected by fluorescent activated cell sorting. […] There is no difference in proliferation of mononuclear cells after Pyk2 inhibitor treatment compared to untreated control cells. FIG. 7B: Fluorescent imaging depicting the effect of Pyk2 inhibitor on phagocytosis of mononucleated and multinucleated MG6 cells. MG6 cells were pretreated with 1000 nM Pyk2 inhibitor for 24 hours and mono-/multi-nuclear cells were isolated and collected by fluorescent activated cell sorting. After sorting, cells were treated with pHrodo Red E. coli BioParticles. Representative images are shown at ×20 magnification level. FIG. 7C: Quantification of phagocytosis of mononucleated and multinucleated MG6 cells over time. After Pyk2 inhibitor treatment and cell sorting, MG6 cells were treated with pHrodo Red E. coli BioParticles for the indicated time. Fluorescence intensity was measured by fluorescence microplate reader at excitation/emission wavelengths of 560/580 nm. […] FIG. 7D: Quantification of the effect of Pyk2 inhibitor treatment on cytokine/chemokine levels of mononucleated and multinucleated MG6 cells. The relative mRNA levels of IL-6, IL-1β, IL-10, and TGF-β were measured by a real-time PCR (qPCR). Measured mRNA transcript levels are reported as the mean level±standard deviation (n=3; *: p-value<0.05; **: p-value <0.01; ***: p-value <0.005; ****: p-value <0.001; and *****: p-value <0.0005).
Next, the differences in the activity of mononucleated and multinucleated microglial cells in response to Pyk2 inhibition was further assessed. […] Mononucleated and multinucleated MG6 cells also differed regarding the cytokines and chemokines produced by each (FIG. 7D).

Lamp1 = assay: Immunoblot of Lamp1 (lysosomal activity) in MG6 cells; details: 1000 nM, under β-amyloid stimulation
Description: FIGS. 6A and 6B. Responses of lysosomal function in microglia to β-amyloid stimulation. FIG. 6A: Immunoblots of MG6 cells after treatment with Pyk2 inhibitor and β-amyloid oligomers. Cells were pretreated with 100 ng/mL CSF-1 and 1000 nM Pyk2 inhibitor (PF431396) for 24 hours as indicated, then cell lysates were harvested after treatment with 500 ng/mL β-amyloid for 24 hours (lanes 4-6). MG6 cell lysates were subjected to immunoblotting of phosphorylated Pyk2 (p-Pyk2), Lamp1, Erk, and phosphorylated Erk (p-Erk). Tubulin was used as a loading control. FIG. 6B: Quantification of immunoblotting depicted in FIG. 6A. Ratios of p-Pyk2/Pyk2, Lamp1/Tubulin, and p-Erk/Erk were calculated for MG6 cells pretreated with CSF-1 and a Pyk2 inhibitor, as indicated.
To assess lysosomal activity, Pyk2 inhibitor treated MG6 cells were also exposed to a disease-relevant substrate, β-amyloid protein, which is associated with progressive loss of neuronal function during Alzheimer's disease. After 24 hours of treatment with β-amyloid, control and Pyk2 inhibitor treated MG6 cells were collected, lysed, and immunoblotted in order to determine the relative protein levels of Pyk2, phosphorylated Pyk2, Lamp1, Erk, phosphorylated Erk, and tubulin (FIGS. 6A and 6B). […] However, in the presence of β-amyloid protein, an increase in Lamp1 was observed following treatment with Pyk2 inhibitor.

In the case of `CN(c1ccccc1CNc1nc(Nc2ccc3c(c2)CC(=O)N3)ncc1C(F)(F)F)S(C)(=O)=O` [PF-431396], the “phagocytosis of Aβ42” value (MG6 cells) is reported as “increased phagocytosis; also recorded: significantly higher”, the “IL-1β expression, mononucleated MG6 cells” value [1] is reported as “increased expression” and the “IL-1β expression, multinucleated MG6 cells” value [1] is reported as “did not”. The “IL-6 expression, mononucleated MG6 cells” value [1] was “increased expression”, the “IL-6 expression, multinucleated MG6 cells” value [1] was “did not” and the “IL-10, mononucleated MG6 cells” value [1] was “reduction”. The “IL-10, multinucleated MG6 cells” value [1] was “reduction”, the “TGF-β expression, multinucleated MG6 cells” value [1] was “increase” and the “Lamp1 (lysosomal activity)” value (Lamp1) was “increased”. The “Lamp1 (lysosomal activity)” value (Lamp1; listed as Pyk2 inhibitor) was “increase”.
